Species: Rattus norvegicus
Test: Open TG-GATES - Regimen: Daily Repeat
Type: toxicity, organism-based, Sprague-Dawley
Design: regimen Daily Repeat, gender Male, age 6 weeks
Conditions: in vivo, sc, 0 mg/kg, […], route subcutaneous injection, dose 0 ug/Kg, dose level Control; for KIDNEY_L / KIDNEY_R / KIDNEY_TOTAL: tissue Kidney; for LIVER: tissue Liver; for A/G / ALP / ALT / AST / BUN / CRE / Ca / Cl / DBIL / GLC / IP / K / LDH / Na / PL / RALB / TBIL / TC / TG / TP / gamma-GTP: tissue Plasma

Question: For CC(=O)O.N=C(N)NCCC[C@@H](NC(=O)[C@@H]1CCCN1C(=O)[C@@H]1CSSCCC(=O)N[C@@H](Cc2ccc(O)cc2)C(=O)N[C@@H](Cc2ccccc2)C(=O)N[C@@H](CCC(N)=O)C(=O)N[C@@H](CC(N)=O)C(=O)N1)C(=O)NCC(N)=O [DESMOPRESSIN ACETATE], which Lym (tissue Blood, time 28 day) is on record?
Answer: The Lym was 77.4%.

Question: And the MCH (tissue Blood, time 28 day)?
Answer: The MCH was 19 pg.

Question: What about the MCHC (tissue Blood, time 28 day) of the same compound?
Answer: Its MCHC is 32.8%.

Question: What about the MCV (tissue Blood, time 28 day) of the same compound?
Answer: The MCV was 58.1 fL.

Question: What about the Mono (tissue Blood, time 28 day) of the same compound?
Answer: Its Mono is 6.6%.

Question: What about the Neu (tissue Blood, time 28 day) of the same compound?
Answer: Its Neu is 14.8%.

Question: What about the PT (tissue Blood, time 28 day) of the same compound?
Answer: The PT was 12.3 s.

Question: What about the Plat (tissue Blood, time 28 day) of the same compound?
Answer: Its Plat is 113 x10_4/uL.

Question: And the RBC (tissue Blood, time 28 day)?
Answer: Its RBC is 797.2 x10_4/ul.

Question: And the Ret (tissue Blood, time 28 day)?
Answer: The Ret was 3.1%.

Question: What about the WBC (tissue Blood, time 28 day) of the same compound?
Answer: The WBC was 130.4 x10_2/uL.

Question: And the KIDNEY_L (time 7 day)?
Answer: Its KIDNEY_L is 1.1 g.

Question: And the KIDNEY_R (time 7 day)?
Answer: The KIDNEY_R was 1.1 g.

Question: And the KIDNEY_TOTAL (time 7 day)?
Answer: Its KIDNEY_TOTAL is 2.2 g.

Question: What about the KIDNEY_L (time 14 day) of the same compound?
Answer: Its KIDNEY_L is 1.3 g.

Question: What about the KIDNEY_R (time 14 day) of the same compound?
Answer: The KIDNEY_R was 1.3 g.

Question: And the KIDNEY_TOTAL (time 14 day)?
Answer: Its KIDNEY_TOTAL is 2.6 g.

Question: What about the KIDNEY_L (time 28 day) of the same compound?
Answer: The KIDNEY_L was 1.5 g.

Question: What about the KIDNEY_R (time 28 day) of the same compound?
Answer: The KIDNEY_R was 1.5 g.

Question: What about the KIDNEY_TOTAL (time 28 day) of the same compound?
Answer: The KIDNEY_TOTAL was 2.9 g.

Question: And the LIVER (time 7 day)?
Answer: Its LIVER is 12.4 g.

Question: What about the LIVER (time 14 day) of the same compound?
Answer: The LIVER was 14.3 g.

Question: What about the LIVER (time 28 day) of the same compound?
Answer: The LIVER was 15.3 g.

Question: What about the A/G (time 7 day) of the same compound?
Answer: The A/G was 1.9.

Question: What about the ALP (time 7 day) of the same compound?
Answer: The ALP was 1187.4 IU/L.

Question: And the ALT (time 7 day)?
Answer: The ALT was 30.2 IU/L.

Question: What about the AST (time 7 day) of the same compound?
Answer: The AST was 68.8 IU/L.

Question: What about the BUN (time 7 day) of the same compound?
Answer: The BUN was 16.2 mg/dL.

Question: What about the CRE (time 7 day) of the same compound?
Answer: Its CRE is 0.4 mg/dL.

Question: And the Ca (time 7 day)?
Answer: Its Ca is 13.7 mg/dL.

Question: And the Cl (time 7 day)?
Answer: Its Cl is 99.2 meq/L.

Question: And the DBIL (time 7 day)?
Answer: Its DBIL is 0.014 mg/dL.

Question: And the GLC (time 7 day)?
Answer: Its GLC is 197.2 mg/dL.

Question: What about the IP (time 7 day) of the same compound?
Answer: The IP was 7.4 mg/dL.

Question: What about the K (time 7 day) of the same compound?
Answer: Its K is 5.1 meq/L.

Question: And the LDH (time 7 day)?
Answer: Its LDH is 157.8 IU/L.

Question: What about the Na (time 7 day) of the same compound?
Answer: Its Na is 130.2 meq/L.

Question: What about the PL (time 7 day) of the same compound?
Answer: The PL was 165 mg/dL.

Question: What about the RALB (time 7 day) of the same compound?
Answer: Its RALB is 3.6 g/dL.

Question: And the TBIL (time 7 day)?
Answer: Its TBIL is 0.048 mg/dL.

Question: And the TC (time 7 day)?
Answer: The TC was 86.8 mg/dL.

Question: And the TG (time 7 day)?
Answer: Its TG is 171 mg/dL.

Question: And the TP (time 7 day)?
Answer: Its TP is 5.5 g/dL.

Question: And the gamma-GTP (time 7 day)?
Answer: Its gamma-GTP is 1 IU/L.

Question: What about the A/G (time 14 day) of the same compound?
Answer: The A/G was 1.7.

Question: And the ALP (time 14 day)?
Answer: The ALP was 1208.4 IU/L.

Question: And the ALT (time 14 day)?
Answer: Its ALT is 31 IU/L.

Question: What about the AST (time 14 day) of the same compound?
Answer: Its AST is 67.8 IU/L.

Question: What about the BUN (time 14 day) of the same compound?
Answer: Its BUN is 16.2 mg/dL.

Question: And the CRE (time 14 day)?
Answer: Its CRE is 0.4 mg/dL.

Question: What about the Ca (time 14 day) of the same compound?
Answer: Its Ca is 11.1 mg/dL.

Question: And the Cl (time 14 day)?
Answer: The Cl was 106.2 meq/L.

Question: And the DBIL (time 14 day)?
Answer: The DBIL was 0.01 mg/dL.

Question: And the GLC (time 14 day)?
Answer: Its GLC is 194.2 mg/dL.

Question: What about the IP (time 14 day) of the same compound?
Answer: Its IP is 6.9 mg/dL.

Question: What about the K (time 14 day) of the same compound?
Answer: Its K is 5.2 meq/L.

Question: And the LDH (time 14 day)?
Answer: Its LDH is 149 IU/L.

Question: What about the Na (time 14 day) of the same compound?
Answer: Its Na is 138.6 meq/L.

Question: And the PL (time 14 day)?
Answer: Its PL is 166 mg/dL.

Question: And the RALB (time 14 day)?
Answer: The RALB was 3.8 g/dL.

Question: What about the TBIL (time 14 day) of the same compound?
Answer: The TBIL was 0.026 mg/dL.

Question: And the TC (time 14 day)?
Answer: Its TC is 91.4 mg/dL.

Question: What about the TG (time 14 day) of the same compound?
Answer: The TG was 136.8 mg/dL.

Question: What about the TP (time 14 day) of the same compound?
Answer: The TP was 6 g/dL.

Question: What about the gamma-GTP (time 14 day) of the same compound?
Answer: The gamma-GTP was 0.8 IU/L.

Question: And the A/G (time 28 day)?
Answer: The A/G was 1.5.

Question: What about the ALP (time 28 day) of the same compound?
Answer: The ALP was 865.8 IU/L.

Question: What about the ALT (time 28 day) of the same compound?
Answer: Its ALT is 27.8 IU/L.

Question: What about the AST (time 28 day) of the same compound?
Answer: Its AST is 67.6 IU/L.

Question: What about the BUN (time 28 day) of the same compound?
Answer: The BUN was 14.6 mg/dL.

Question: And the CRE (time 28 day)?
Answer: Its CRE is 0.4 mg/dL.

Question: And the Ca (time 28 day)?
Answer: The Ca was 8.9 mg/dL.

Question: And the Cl (time 28 day)?
Answer: Its Cl is 106 meq/L.

Question: What about the DBIL (time 28 day) of the same compound?
Answer: The DBIL was 0.01 mg/dL.

Question: And the GLC (time 28 day)?
Answer: Its GLC is 184.8 mg/dL.

Question: What about the IP (time 28 day) of the same compound?
Answer: Its IP is 6.2 mg/dL.

Question: And the K (time 28 day)?
Answer: Its K is 4.9 meq/L.

Question: What about the LDH (time 28 day) of the same compound?
Answer: The LDH was 154.2 IU/L.

Question: What about the Na (time 28 day) of the same compound?
Answer: The Na was 139.2 meq/L.

Question: What about the PL (time 28 day) of the same compound?
Answer: The PL was 126.4 mg/dL.

Question: And the RALB (time 28 day)?
Answer: The RALB was 3.6 g/dL.

Question: And the TBIL (time 28 day)?
Answer: The TBIL was 0.038 mg/dL.

Question: What about the TC (time 28 day) of the same compound?
Answer: Its TC is 63.6 mg/dL.

Question: What about the TG (time 28 day) of the same compound?
Answer: Its TG is 120.6 mg/dL.

Question: What about the TP (time 28 day) of the same compound?
Answer: The TP was 6 g/dL.

Question: What about the gamma-GTP (time 28 day) of the same compound?
Answer: Its gamma-GTP is 0.6 IU/L.

Source: ChEMBL document CHEMBL3885861, “Open TG-GATES”
